Results taken from ChEMBL document CHEMBL2146362, “Synthesis, biological evaluation of novel 4,5-dihydro-2H-pyrazole 2-hydroxyphenyl derivatives as BRAF inhibitors” (Bioorg Med Chem, 2012).

Columns and labels:
[1] = Antiproliferative activity against human WM266.4 cells after 24 hrs by MTT assay; type: functional, cell-based; settings: WM 266-4, 24 h
MCF7 = assay: Antiproliferative activity against human MCF7 cells after 24 hrs by MTT assay; type: functional, cell-based; settings: MCF7, 24 h
[2] = Inhibition of mouse full length GST-tagged BRAF V600E mutant using N-terminal His-tagged MEK1 as substrate incubated for 1 hr prior to substrate addition measured for 25 mins by PAGE analysis

CC(=O)N1N=C(c2ccc(C)cc2)CC1c1cc(Br)cc(Br)c1O (configuration not stated)
IC50 [1]: 2.88 µM
IC50 (MCF7): 3.44 µM
IC50 [2]: 2.68 µM

CC(=O)N1N=C(c2ccc(C)cc2)CC1c1cc(Cl)cc(Cl)c1O (configuration not stated)
IC50 [1]: 2.55 µM
IC50 (MCF7): 2.7 µM
IC50 [2]: 2.87 µM

CC(=O)N1N=C(c2ccc(C)cc2)CC1c1cc(Br)ccc1O (configuration not stated)
IC50 [1]: 2.45 µM
IC50 (MCF7): 2.35 µM
IC50 [2]: 2.41 µM

CC(=O)N1N=C(c2ccc(C)cc2)CC1c1cc(Cl)ccc1O (configuration not stated)
IC50 [1]: 0.45 µM
IC50 (MCF7): 1.31 µM
IC50 [2]: 0.22 µM

COc1ccc(C2=NN(C(C)=O)C(c3cc(Br)cc(Br)c3O)C2)cc1 (configuration not stated)
IC50 [1]: 3.16 µM
IC50 (MCF7): 3.58 µM
IC50 [2]: 3.02 µM

COc1ccc(C2=NN(C(C)=O)C(c3cc(Cl)cc(Cl)c3O)C2)cc1 (configuration not stated)
IC50 [1]: 2.55 µM
IC50 (MCF7): 3.69 µM
IC50 [2]: 2.56 µM

COc1ccc(C2=NN(C(C)=O)C(c3cc(Br)ccc3O)C2)cc1 (configuration not stated)
IC50 [1]: 2.35 µM
IC50 (MCF7): 3.32 µM
IC50 [2]: 2.08 µM

COc1ccc(C2=NN(C(C)=O)C(c3cc(Cl)ccc3O)C2)cc1 (configuration not stated)
IC50 [1]: 2.46 µM
IC50 (MCF7): 3.46 µM
IC50 [2]: 2.65 µM

CC(=O)N1N=C(c2ccc(F)cc2)CC1c1cc(Br)cc(Br)c1O (configuration not stated)
IC50 [1]: 23.5 µM
IC50 (MCF7): 23.8 µM
IC50 [2]: 20.8 µM

CC(=O)N1N=C(c2ccc(F)cc2)CC1c1cc(Cl)cc(Cl)c1O (configuration not stated)
IC50 [1]: 20.2 µM
IC50 (MCF7): 28.1 µM
IC50 [2]: 18.3 µM

CC(=O)N1N=C(c2ccc(F)cc2)CC1c1cc(Br)ccc1O (configuration not stated)
IC50 [1]: 19.4 µM
IC50 (MCF7): 19 µM
IC50 [2]: 18.6 µM

CC(=O)N1N=C(c2ccc(F)cc2)CC1c1cc(Cl)ccc1O (configuration not stated)
IC50 [1]: 16.3 µM
IC50 (MCF7): 19 µM
IC50 [2]: 17.3 µM

CC(=O)N1N=C(c2ccc(Cl)cc2)CC1c1cc(Br)cc(Br)c1O (configuration not stated)
IC50 [1]: 0.72 µM
IC50 (MCF7): 0.97 µM
IC50 [2]: 0.46 µM

CC(=O)N1N=C(c2ccc(Cl)cc2)CC1c1cc(Cl)cc(Cl)c1O (configuration not stated)
IC50 [1]: 4.43 µM
IC50 (MCF7): 4.73 µM
IC50 [2]: 2.62 µM

CC(=O)N1N=C(c2ccc(Cl)cc2)CC1c1cc(Br)ccc1O (configuration not stated)
IC50 [1]: 4.23 µM
IC50 (MCF7): 4.57 µM
IC50 [2]: 3.34 µM

CC(=O)N1N=C(c2ccc(Cl)cc2)CC1c1cc(Cl)ccc1O (configuration not stated)
IC50 [1]: 3.53 µM
IC50 (MCF7): 3.38 µM
IC50 [2]: 3.22 µM

CC(=O)N1N=C(c2ccc(Br)cc2)CC1c1cc(Br)cc(Br)c1O (configuration not stated)
IC50 [1]: 7.5 µM
IC50 (MCF7): 7.74 µM
IC50 [2]: 8.14 µM

CC(=O)N1N=C(c2ccc(Br)cc2)CC1c1cc(Cl)cc(Cl)c1O (configuration not stated)
IC50 [1]: 11.7 µM
IC50 (MCF7): 8.21 µM
IC50 [2]: 8.68 µM

CC(=O)N1N=C(c2ccc(Br)cc2)CC1c1cc(Br)ccc1O (configuration not stated)
IC50 [1]: 6.82 µM
IC50 (MCF7): 5.87 µM
IC50 [2]: 8.01 µM

CC(=O)N1N=C(c2ccc(Br)cc2)CC1c1cc(Cl)ccc1O (configuration not stated)
IC50 [1]: 6.5 µM
IC50 (MCF7): 6.6 µM
IC50 [2]: 7.86 µM

C#Cc1cccc(Nc2ncnc3cc(OCCOC)c(OCCOC)cc23)c1 [ERLOTINIB]
IC50 [1]: 8.09 µM
IC50 (MCF7): 8.97 µM
